Reference: US10150760B2, “Compounds for use in preparing heterocyclic triazole agonists of the APJ receptor” (AMGEN INC., priority 2016, dated 2018)

Biological target: human APJ receptor (Homo sapiens (Human), UniProt P35414)
Assay: [35S]GTPγS binding assay on membranes from CHO cells stably expressing human APJ receptor
Assay type: biochemical
Details: read-out: Activity hAPJ SPA EC50 IP
Method in brief: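 Agonist-driven [35S]GTPγS (0.2 nM) binding was measured over 90 min at room temperature on human APJ-expressing CHO membranes with bead capture, in buffer containing 3 μM GDP, 200 mM NaCl and 5 mM MgCl2 (pH 7.5). Excess unlabelled GTPγS (100 μM) gave nonspecific signal; EC50 from non-linear fits.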

Sequence of human APJ receptor (P35414 whole entry): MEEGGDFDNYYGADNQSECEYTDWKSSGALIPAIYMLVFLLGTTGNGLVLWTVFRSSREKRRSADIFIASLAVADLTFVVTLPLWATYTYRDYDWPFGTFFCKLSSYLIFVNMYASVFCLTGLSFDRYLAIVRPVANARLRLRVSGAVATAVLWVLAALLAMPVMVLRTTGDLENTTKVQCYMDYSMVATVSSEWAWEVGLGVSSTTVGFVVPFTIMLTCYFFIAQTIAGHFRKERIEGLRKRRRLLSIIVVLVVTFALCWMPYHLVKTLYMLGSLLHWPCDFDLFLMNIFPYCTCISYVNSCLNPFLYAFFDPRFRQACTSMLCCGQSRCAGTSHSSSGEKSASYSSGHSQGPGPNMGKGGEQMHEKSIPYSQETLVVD

Molecule | EC50 [µM]
COc1ncnc(OC)c1-n1c(NS(=O)(=O)[C@@H](C)[C@@H](OC(C)C)c2ncc(C)cn2)nnc1[C@H]1CCCO1 (single isomer, unassigned) [Example 95.0, (1S,2S)-N-(4-(4,6-dimethoxypyrimidm-5-yl)-5-((S)-tetrahydrofuran-2-yl)-4H-1,2,4-triazol-3-yl)-1-isopropoxy-1-(5-methylpyrimidin-2-yl)propane-2-sulfonamide or (1S,2S)-N-(4-(4,6-dimethoxypyrimidin-5-yl)-5-((R)-tetrahydrofuran-2-yl)-4H-1,2,4-triazol-3-yl)-1-isopropoxy-1-(5-methylpyrimidin-2-yl)propane-2-sulfonamide] | 0.015
COc1ncnc(OC)c1-n1c(NS(=O)(=O)[C@@H](C)[C@H](C)c2ncc(Cl)cn2)nnc1[C@H]1CCCOC1 (single isomer, unassigned) [Example 101.0, (2S,3R)-3-(5-chloropyrimidin-2-yl)-N-(4-(4,6-dimethoxypyrimidin-5-yl)-5-((S)-tetrahydro-2H-pyran-3-yl)-4H-1,2,4-triazol-3-yl)butane-2-sulfonamide or (2S,3R)-3-(5-chloropyrimidin-2-yl)-N-(4-(4,6-dimethoxypyrimidin-5-yl)-5-((R)-tetrahydro-2H-pyran-3-yl)-4H-1,2,4-triazol-3-yl)butane-2-sulfonamide] | 0.26
(2S,3R)-N-(4-((1r,2R,6S)-2,6-dimethoxycyclohexyl)-5-((3S)-tetrahydro-3-furanyl)-4H-1,2,4-triazol-3-yl)-3-(5-methyl-2-pyrimidinyl)-2-butanesulfonamide or (2S,3R)-N-(4-((1r,2R,6S)-2,6-dimethoxycyclohexyl)-5-((3R)-tetrahydro-3-furanyl)-4H-1,2,4-triazol-3-yl)-3-(5-methyl-2-pyrimidinyl)-2-butanesulfonamide [Example 5.0] | > 4.2
(2R)-N-(4-(2,6-dimethoxyphenyl)-5-(tetrahydro-2H-pyran-4-yl)-4H-1,2,4-triazol-3-yl)-1-(5-fluoro-2-pyrimidinyl)-2-propanesulfonamide or (2S)-N-(4-(2,6-dimethoxyphenyl)-5-(tetrahydro-2H-pyran-4-yl)-4H-1,2,4-triazol-3-yl)-1-(5-fluoro-2-pyrimidinyl)-2-propanesulfonamide [Example 17.0] | 0.81
COc1ncnc(OC)c1-n1c(NS(=O)(=O)[C@@H](C)[C@H](OC)c2ncc(Cl)cn2)nnc1[C@H]1CCCOC1 (single isomer, unassigned) [Example 92.0, (1R,2S)-1-(5-chloropyrimidin-2-yl)-N-(4-(4,6-dimethoxypyrimidin-5-yl)-5-((S)-tetrahydro-2H-pyran-3-yl)-4H-1,2,4-triazol-3-yl)-1-methoxypropane-2-sulfonamide or (1R,2S)-1-(5-chloropyrimidin-2-yl)-N-(4-(4,6-dimethoxypyrimidin-5-yl)-5-((R)-tetrahydro-2H-pyran-3-yl)-4H-1,2,4-triazol-3-yl)-1-methoxypropane-2-sulfonamide] | 0.042
COc1cccc(OC)c1-n1c(NS(=O)(=O)CCc2ccc(F)cc2C#N)nnc1[C@@H]1CCOC1 [Example 345.0, (S)-2-(2-cyano-4-fluorophenyl)-N-(4-(2,6-dimethoxyphenyl)-5-(tetrahydrofuran-3-yl)-4H-1,2,4-triazol-3-yl) ethanesulfonamide] | 0.1
COc1cnc([C@@H](C)[C@H](C)S(=O)(=O)Nc2nnc([C@@H]3COCCO3)n2-c2c(OC)ncnc2OC)nc1 (single isomer, unassigned) [Example 178.0, (2S,3R)-N-(4-(4,6-dimethoxy-5-pyrimidinyl)-5-((2R)-1,4-dioxan-2-yl)-4H-1,2,4-triazol-3-yl)-3-(5-methoxy-2-pyrimidinyl)-2-butanesulfonamide or (2S,3R)-N-(4-(4,6-dimethoxy-5-pyrimidinyl)-5-((2S)-1,4-dioxan-2-yl)-4H-1,2,4-triazol-3-yl)-3-(5-methoxy-2-pyrimidinyl)-2-butanesulfonamide] | 0.29
(1R,2S)-N-(4-(1,3-dimethoxy-2-propanyl)-5-((2R,5R)-5-methyltetrahydro-2-furanyl)-4H-1,2,4-triazol-3-yl)-1-methoxy-1-(5-methoxy-2-pyrazinyl)-2-propanesulfonamide or (1R,2S)-N-(4-(1,3-dimethoxy-2-propanyl)-5-((2S,5S)-5-methyltetrahydro-2-furanyl)-4H-1,2,4-triazol-3-yl)-1-methoxy-1-(5-methoxy-2-pyrazinyl)-2-propanesulfonamide [Example 379.0] | 0.021
COc1cccc(OC)c1-n1c(NS(=O)(=O)[C@@H](C)[C@@H](OC(C)C)c2ncc(C)cn2)nnc1[C@H]1CCOC1 (single isomer, unassigned) [Example 99.0, (1S,2S)-N-(4-(2,6-dimethoxyphenyl)-5-((R)-tetrahydrofuran-3-yl)-4H-1,2,4-triazol-3-yl)-1-isopropoxy-1-(5-methylpyrimidin-2-yl)propane-2-sulfonamide or (1S,2S)-N-(4-(2,6-dimethoxyphenyl)-5-((S)-tetrahydrofuran-3-yl)-4H-1,2,4-triazol-3-yl)-1-isopropoxy-1-(5-methylpyrimidin-2-yl)propane-2-sulfonamide] | 0.0025
COc1ncnc(OC)c1-n1c(NS(=O)(=O)[C@@H](C)[C@H](C)c2ncc(Cl)cn2)nnc1[C@H]1CCCO1 (single isomer, unassigned) [Example 82.0, (2S,3R)-3-(5-chloropyrimidin-2-yl)-N-(4-(4,6-dimethoxypyrimidin-5-yl)-5-((S)-tetrahydrofuran-2-yl)-4H-1,2,4-triazol-3-yl)butane-2-sulfonamide or (2S,3R)-3-(5-chloropyrimidin-2-yl)-N-(4-(4,6-dimethoxypyrimidin-5-yl)-5-((R)-tetrahydrofuran-2-yl)-4H-1,2,4-triazol-3-yl)butane-2-sulfonamide] | 0.003
(1R,2S)-1-(5-chloropyrimidin-2-yl)-N-(4-(2,6-dimethoxyphenyl)-5-((3aR,6aR)-hexahydro-3aH-cyclopenta[b]furan-3a-yl)-4H-1,2,4-triazol-3-yl)-1-methoxypropane-2-sulfonamide or (1R,2S)-1-(5-chloropyrimidin-2-yl)-N-(4-(2,6-dimethoxyphenyl)-5-((3aS,6aS)-hexahydro-3aH-cyclopenta[b]furan-3a-yl)-4H-1,2,4-triazol-3-yl)-1-methoxypropane-2-sulfonamide [Example 347.0] | 0.36
(1S,2S)-N-(4-(1,3-dimethoxy-2-propanyl)-5-((2R,5R)-5-methyltetrahydro-2-furanyl)-4H-1,2,4-triazol-3-yl)-1-(5-methyl-2-pyrazinyl)-1-(2-propanyloxy)-2-propanesulfonamide or (1S,2S)-N-(4-(1,3-dimethoxy-2-propanyl)-5-((2S,5S)-5-methyltetrahydro-2-furanyl)-4H-1,2,4-triazol-3-yl)-1-(5-methyl-2-pyrazinyl)-1-(2-propanyloxy)-2-propanesulfonamide [Example 364.0] | 0.069
(2S,3R)-N-(4-((1r,2R,6S)-2,6-dimethoxycyclohexyl)-5-((3S)-tetrahydro-3-furanyl)-4H-1,2,4-triazol-3-yl)-3-(5-methyl-2-pyrimidinyl)-2-butanesulfonamide or (2S,3R)-N-(4-((1r,2R,6S)-2,6-dimethoxycyclohexyl)-5-((3R)-tetrahydro-3-furanyl)-4H-1,2,4-triazol-3-yl)-3-(5-methyl-2-pyrimidinyl)-2-butanesulfonamide [Example 4.0] | 0.89
COc1cccc(OC)c1-n1c(NS(=O)(=O)[C@@H](C)[C@H](C)c2ncc(Cl)cn2)nnc1[C@H]1OCC[C@H]1C (single isomer, unassigned) [Example 75.0, (2S,3R)-3-(5-chloropyrimidin-2-yl)-N-(4-(2,6-dimethoxyphenyl)-5-((2R,3S)-3-methyltetrahydrofuran-2-yl)-4H-1,2,4-triazol-3-yl)butane-2-sulfonamide or (2S,3R)-3-(5-chloropyrimidin-2-yl)-N-(4-(2,6-dimethoxyphenyl)-5-((2S,3R)-3-methyltetrahydrofuran-2-yl)-4H-1,2,4-triazol-3-yl)butane-2-sulfonamide] | 0.21
(1S,2S)-N-(4-(4,6-dimethoxypyrimidin-5-yl)-5-((R)-tetrahydrofuran-3-yl)-4H-1,2,4-triazol-3-yl)-1-(5-fluoropyrimidin-2-yl)-1-isopropoxypropane-2-sulfonamide or (1S,2S)-N-(4-(4,6-dimethoxypyrimidin-5-yl)-5-((S)-tetrahydrofuran-3-yl)-4H-1,2,4-triazol-3-yl)-1-(5-fluoropyrimidin-2-yl)-1-isopropoxypropane-2-sulfonamide [Example 321.0] | 0.068
COc1ncnc(OC)c1-n1c(NS(=O)(=O)[C@@H](C)[C@H](C)c2ncc(Cl)cn2)nnc1[C@H]1CCCO1 (single isomer, unassigned) [Example 81.0, (2S,3R)-3-(5-chloropyrimidin-2-yl)-N-(4-(4,6-dimethoxypyrimidin-5-yl)-5-((S)-tetrahydrofuran-2-yl)-4H-1,2,4-triazol-3-yl)butane-2-sulfonamide or (2S,3R)-3-(5-chloropyrimidin-2-yl)-N-(4-(4,6-dimethoxypyrimidin-5-yl)-5-((R)-tetrahydrofuran-2-yl)-4H-1,2,4-triazol-3-yl)butane-2-sulfonamide] | 0.082
(2S,3R)-N-(4-(2,6-dimethoxyphenyl)-5-((R)-1,1-dioxidotetrahydrothiophen-3-yl)-4H-1,2,4-triazol-3-yl)-3-(5-methylpyrimidin-2-yl)butane-2-sulfonamide or (2S,3R)-N-(4-(2,6-dimethoxyphenyl)-5-((S)-1,1-dioxidotetrahydrothiophen-3-yl)-4H-1,2,4-triazol-3-yl)-3-(5-methylpyrimidin-2-yl)butane-2-sulfonamide [Example 183.0] | 1.06
